# How the values were obtained:
# CHO 9E4 cell line = experiment: Selection of stably transfected CHO 9E4 cells with leflunomide or teriflunomide as selection agent; type: cell-based, Chinese hamster; conditions: for Antibody: Less than 10 μg/ml (number of wells) / Antibody: More than 10 μg/ml (number of wells) / % of Occupied / % of Producers / Occupied (number of wells): Teriflunomide 50 μM; for % of Occupied / % of Producers / Occupied (number of wells): 480 wells tested; for Occupied (number of wells): growing clones after 15 to 20 days
# Source text: The CHO 9E4 cell line was transfected with two different plasmids bearing the cDNA encoding human DHODH cDNA and the genetic material for production of anti CD38 or 13C3 antibodies (vectors pBH4952 and pBH4967). As a control vector for selection, the plasmid bearing a cDNA encoding human GS cDNA instead of DHODH (pBH3695) was transfected using into CHO 9E4 cell lines. The genetic material was transfected using standard electroporation techniques.
# Twenty four hours post transfection, the selection process was started. […] The control vector was equally transfected and submitted to the same selection process.
# In each case, 480 wells were seeded with 2000 cells/well.
# CHO 9E4 cells [1] = experiment: Preliminary culture of CHO 9E4 cells with leflunomide; type: cell-based, Chinese hamster; conditions: leflunomide at 50 and 100 μM; preliminary experiments
# Protocol: This obtained 27 wells with growing cells. Of these 27, 4 produced low but significant amount 13C3 antibody. However production was unstable and the efficiency was low below 0.1%. These experiments served as proof of principle that DHODH can be used as a selectable marker for recombinant protein production, so further experiments were performed.
# CHO 9E4 cells [2] = conditions: MSX 25 μM; 13C3; 960 wells tested; growing clones after 15 to 20 days
smiles,measurement,setting,value
"C/C(O)=C(\C#N)C(=O)Nc1ccc(C(F)(F)F)cc1 [teriflunomide, (2Z)-2-cyano-3-hydroxy-N-[4-(trifluoromethyl)phenyl]but-2-enamide]",Antibody: Less than 10 μg/ml (number of wells),CHO 9E4 cell line; 13C3,24
same,Antibody: More than 10 μg/ml (number of wells),CHO 9E4 cell line; 13C3,14
same,% of Occupied,CHO 9E4 cell line; 13C3,8%
same,% of Producers,CHO 9E4 cell line; 13C3,3%
same,Occupied (number of wells),CHO 9E4 cell line; 13C3,38
same,Antibody: Less than 10 μg/ml (number of wells),CHO 9E4 cell line; anti-CD38,29
same,Antibody: More than 10 μg/ml (number of wells),CHO 9E4 cell line; anti-CD38,19
same,% of Occupied,CHO 9E4 cell line; anti-CD38,10%
same,% of Producers,CHO 9E4 cell line; anti-CD38,4%
same,Occupied (number of wells),CHO 9E4 cell line; anti-CD38,48
same,growth of cells transfected with control vector,"CHO 9E4 cell line; control vector pBH3695 (human GS), 50 and 100 μM teriflunomide, even after 25 days, 480 wells",no growth was observed in any of the wells
same,wells with growing cells,"CHO 9E4 cell line; teriflunomide-selected, human DHODH vectors pBH4967 and pBH4952, two weeks later",8-10%
same,growth of cells transfected with hamster DHODH vectors,"CHO 9E4 cell line; teriflunomide-selected, vectors pBH4940 and pBH4939",no growth was observed in any of the wells
"Cc1oncc1C(=O)Nc1ccc(C(F)(F)F)cc1 [leflunomide, 5-methyl-N-[4-(trifluoromethyl)phenyl]-isoxazole-4-carboxamide]",effect on CHO 9E4 cell growth,CHO 9E4 cells [1],did not kill the cells but inhibited growth
same,antibody in supernatants of the 480 wells,CHO 9E4 cell line; leflunomide 50 and 100 μM,none of the supernatants showed detectable amount of antibodies
same,wells displaying growing clones,"CHO 9E4 cell line; leflunomide 50 and 100 μM, DHODH from human or hamster origin, after 20 days",all the wells were displaying growing clones
"CS(=N)(=O)CC[C@H](N)C(=O)O (stereo partly drawn) [MSX, L-methionine sulfoximine]",Occupied (number of wells),CHO 9E4 cells [2],46

# Reference: patent US12203103B2, “Selection marker for cell transfection and protein production” (Sanofi, priority 2014, dated 2025)
